In patent US6476067B1, “N-formyl hydroxylamine derivatives as antibacterial agents” (British Biotech, priority 1998, dated 2002):
Values after ≈ are worked out from the molar mass of the structure shown.

Legend:
[1] = tested on: Staphylococcus capitis (American Type Culture Collection number 35661); assay: Minimal inhibitory concentration (MIC), broth microdilution; assay type: cell-based; details: ATCC35661, S. capitis ATCC 35661, 2×YT broth, 37° C., 18 hours, lowest concentration that inhibited visible growth
Experimental: (§1) Minimal inhibitory concentrations (MIC) of inhibitors against E. colistrain DH5α (Genotype; F-φ80d/acZΔM15Δ(lacZYA-argF)U169 deoR recA1 endA1 hsdR17(rk^−,mk^+)phoA supE44λ^−thi-1 gyrA96 re/A1) obtained from GibcoBRL Life Technologies, or Staphylococcus capitis (American Type Culture Collection number 35661) were determined as follows. Stock solutions of each test compound were prepared by dissolution of the compound in dimethylsulfoxide at 10 mM. For the determination of the minimal inhibitory concentration, two fold serial dilutions were prepared in 2×YT broth (typtone-16 g/1, yeast extract 10 g/1, sodium chloride 5 g/1 obtained from BIO 101 Inc, 1070 Joshua Way, Vista, Calif. 92083, USA) to yield 0.05 ml compound-containing medium per well. Inocula were prepared from cultures grown overnight in 2×YT broth at 37° C. Cell densities were adjusted to absorbance at 660 nm (A660)=0.1; the optical density-standardized preparations were diluted 1:1000 in 2×YT broth; and each well inoculated with 0.05 ml of the diluted bacteria. Microtiter plates were incubated at 37° C. for 18 hours in a humidified incubator. The MIC (μM) was recorded as the lowest drug concentration that inhibited visible growth.

E. coli strain DH5α = assay: as above; assay type: cell-based; details: Escherichia coli, 2×YT broth, 37° C., 18 hours, lowest concentration that inhibited visible growth
Experimental: as §1

| Structure (SMILES) | melting point [°C] | MIC [1] [µM] | MIC (E. coli strain DH5α) [µM] |
| --- | --- | --- | --- |
| CCCC[C@H](CN(O)C=O)C(=O)N[C@H](C(=O)OC1CCCC1)C(C)(C)C [Example 3, 2S{-2R-[(Formyl-hydroxy-amino)-methyl]-hexanoylamino}-3,3-dimethyl Butyric Acid Cyclopentyl Ester] | – | 12.5 (≈ 4.63 µg/mL) | 50 (≈ 18.5 µg/mL) |
| CC(C)C[C@@H](C(=O)N[C@@H](Cc1ccccc1)C(=O)OC1CCCC1)C(C)N(O)C=O (stereo partly drawn) [Example 2, 2S-{2R-[1-(R,S)-(Formyl-hydroxy-amino)-ethyl]-4-methyl-pentanoylamino}-3-phenylpropionic Acid Cyclopentyl Ester] | – | 200 to 300 (≈ 83.7 to 126 µg/mL) | > 200 |
| O=CN(O)CC(Cc1ccccc1)C(=O)N[C@@H](Cc1ccccc1)C(=O)OC1CCCC1 (stereo partly drawn) [Example 1, 2S-[2-(R,S)-Benzyl-3-(formyl-hydroxy-amino)-propionylamino]-3-phenyl-propionic acid cyclopentyl ester] | – | 12.5 (≈ 5.48 µg/mL) | 500 (≈ 219 µg/mL) |
| CCCC[C@H](CN(O)C=O)C(=O)N[C@@H](Cc1ccccc1)C(=O)OC1CCCC1 [Example 4, 2S-{2R-[(Formyl-hydroxy-amino)-methyl]-hexanoylamino}-3-phenyl-propionic Acid Cyclopentyl Ester] | – | 25 (≈ 10.1 µg/mL) | 200 to 300 (≈ 80.9 to 121 µg/mL) |

Results, then the compound that gave them:

| melting point [°C] | MIC [1] [µM] | MIC (E. coli strain DH5α) [µM] | Structure (SMILES) |
| --- | --- | --- | --- |
| 76.1 to 78.2 | – | – | CCCC[C@H](CN(O)C=O)C(=O)N[C@H](C(=O)OC(C)(C)C)C(C)(C)C [Example 11, 2S-{2R-[(Formyl-hydroxy-amino)-methyl]-hexanoylamino}-3,3-dimethyl-butyric Acid Tert-butyl Ester] |
| – | 50 (≈ 17.8 µg/mL) | 100 (≈ 35.6 µg/mL) | CCCCC(CN(O)C=O)C(=O)N[C@H](C(=O)OC1CCCC1)C(C)C (stereo partly drawn) [Example 6, 2S-{2R-[(Formyl-hydroxy-amino)methyl]-hexanoylamino}-3-methyl Butyric Acid Cyclopentyl Ester] |
| 63.5 to 64.5 | 200 (≈ 63.3 µg/mL) | 50 (≈ 15.8 µg/mL) | CCCC[C@H](CN(O)C=O)C(=O)N[C@H](C(=O)OC)C(C)(C)C [Example 5, 2S-{2R-[(Formyl-hydroxy-amino)methyl]-hexanoylamino}-3,3-dimethyl Butyric Acid Methyl Ester] |
| 76.8 to 78.5 | – | – | O=CN(O)C[C@@H](CC1CCCC1)C(=O)N[C@@H](Cc1ccccc1)C(=O)OC1CCCC1 [Example 16, 2S-[2R-Cyclopentylmethyl-3-(formyl-hydroxy-amino)-propionylamino]-3-phenyl-propionic Acid Cyclopentyl Ester] |
